Reference: article doi:10.1101/2024.10.29.620944v2, “Discovery and isolation of novel capsaicinoids and their TRPV1-related activity” (biorxiv, 2025)
Where two headings read alike, the source gives them in different places.

Legend:
[1] = target: T1, rat TRPV1 receptor (rTRPV1) (Rattus norvegicus, UniProt O35433); assay: Fluo-4 calcium influx assay, FDSS, irTRPV1-FlpIn293 cells; assay type: cell-based
T1 construct: rat TRPV1 stably expressed under doxycycline control (Tet-on) in Flp-In T-REx-293 cells (irTRPV1-FlpIn293); homotetramer
T1 sequence (O35433 whole entry): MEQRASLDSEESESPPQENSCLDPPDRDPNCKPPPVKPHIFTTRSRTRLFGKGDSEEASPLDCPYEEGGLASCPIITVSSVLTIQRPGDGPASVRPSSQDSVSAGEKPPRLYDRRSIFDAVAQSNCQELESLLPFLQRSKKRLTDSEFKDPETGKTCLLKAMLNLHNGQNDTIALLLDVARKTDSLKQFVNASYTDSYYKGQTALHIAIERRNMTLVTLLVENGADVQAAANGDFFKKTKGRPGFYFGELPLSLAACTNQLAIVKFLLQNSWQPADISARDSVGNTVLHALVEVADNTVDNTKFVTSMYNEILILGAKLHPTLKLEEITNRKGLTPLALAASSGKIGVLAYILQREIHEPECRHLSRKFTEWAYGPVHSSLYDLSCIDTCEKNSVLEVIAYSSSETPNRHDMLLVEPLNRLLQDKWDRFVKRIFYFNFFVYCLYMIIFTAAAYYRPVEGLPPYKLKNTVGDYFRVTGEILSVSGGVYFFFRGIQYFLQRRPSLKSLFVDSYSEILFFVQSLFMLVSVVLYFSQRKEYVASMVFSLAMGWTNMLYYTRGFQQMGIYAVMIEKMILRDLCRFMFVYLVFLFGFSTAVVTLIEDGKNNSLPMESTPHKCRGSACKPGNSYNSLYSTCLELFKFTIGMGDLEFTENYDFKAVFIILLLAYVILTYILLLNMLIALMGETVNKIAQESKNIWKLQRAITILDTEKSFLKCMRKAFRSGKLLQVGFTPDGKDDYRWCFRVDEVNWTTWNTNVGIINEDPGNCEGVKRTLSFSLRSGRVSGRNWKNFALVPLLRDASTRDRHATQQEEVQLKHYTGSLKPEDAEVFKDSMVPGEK

[2] = target: T1, rat TRPV1 receptor (rTRPV1); assay: cell-based
Protocol: Purchased capsaicinoid standards, capsiate (both MedChemExpress), vanillin (Honeywell Fluka) and 4-hydroxy-3-methoxybenzyl alcohol (Alfa Aesar) and AMG-517 (TargetMol, Boston, MA, USA) were all dissolved in DMSO to 10 mM as stock solutions. Stably transfected irTRPV1-FlpIn293 cells with Tet-on system (procedure described in Supplementary Methods 1.3) were grown to confluence in Advanced Dulbecco’s Modified Eagle Medium (Adv-DMEM/F12, #12634) supplemented with 10% FBS, 1% Pen Strep, 1% Glutamax (all Gibco, Thermo Fisher Scientific). Forty-eight hours before the experiment, doxycycline (final concentration 1 μg/mL)(Sigma-Aldrich, St.Luid, Mi., USA) and 10 μM ruthenium red (RR; Merck KGaG, Darmstadt, Germany) were added to the media to induce TRPV1 expression. After 24 hours, the cells were washed and detached with 0.5% trypsin–EDTA in PBS (Gibco). Cells resuspended in blocking media (Adv-DMEM/F12 + 10% FBS + 10 μM RR) were counted and then seeded into a 384-well plate (3674, Corning, Corning, NY, USA) in the amount of 3×10^4 per well. Twenty-four hours after seeding, a 2× Fluo-4 direct dye solution (Invitrogen, Thermo Fisher Scientific), dissolved in HHBS buffer, pH ∼ 7.4, was added to well with cells and incubated for 30 minutes at 37°C and then for 40 minutes at room temperature. Once incubated with the dye, the supernatant was removed using BlueWasher (BlueCatbio NH Inc., Lebanon, NH, USA) and changed to an HHBS + 10 μM sulfinpyrazone (Merck KGaG) solution added by Certus (Fritz Gyger AG, Gwatt, Switzerland), followed by 10 minutes of incubation in FDSS μCell (∼ 30°C; Hamamatsu, Hamamatsu city, Japan). A separate compound plate was prepared using an Echo dispenser 650 (Beckman Coulter Inc.,Brea, CA, USA). The final concentration was reached by adding HHBS + 10 μM sulfinpyrazone as above by Certus. The rTRPV1 activity measurement started by recording the baseline (40 s, sample interval 0.339 s). Then the compounds/compound mixture were transferred to the dedicated wells by tips while the recording was running for the next 5 minutes.

[3] = target: T1, rat TRPV1 receptor (rTRPV1); assay: cell-based; parameters: species or system irTRPV1-FlpIn293 (HEK293); Fluo-4 calcium influx, FDSS, TRPV1 activation
Protocol: Purchased capsaicinoid standards, capsiate (both MedChemExpress), vanillin (Honeywell Fluka) and 4-hydroxy-3-methoxybenzyl alcohol (Alfa Aesar) and AMG-517 (TargetMol, Boston, MA, USA) were all dissolved in DMSO to 10 mM as stock solutions. Stably transfected irTRPV1-FlpIn293 cells with Tet-on system (procedure described in Supplementary Methods 1.3) were grown to confluence in Advanced Dulbecco’s Modified Eagle Medium (Adv-DMEM/F12, #12634) supplemented with 10% FBS, 1% Pen Strep, 1% Glutamax (all Gibco, Thermo Fisher Scientific). Forty-eight hours before the experiment, doxycycline (final concentration 1 μg/mL)(Sigma-Aldrich, St.Luid, Mi., USA) and 10 μM ruthenium red (RR; Merck KGaG, Darmstadt, Germany) were added to the media to induce TRPV1 expression. After 24 hours, the cells were washed and detached with 0.5% trypsin–EDTA in PBS (Gibco). Cells resuspended in blocking media (Adv-DMEM/F12 + 10% FBS + 10 μM RR) were counted and then seeded into a 384-well plate (3674, Corning, Corning, NY, USA) in the amount of 3×10^4 per well. Twenty-four hours after seeding, a 2× Fluo-4 direct dye solution (Invitrogen, Thermo Fisher Scientific), dissolved in HHBS buffer, pH ∼ 7.4, was added to well with cells and incubated for 30 minutes at 37°C and then for 40 minutes at room temperature. […]

[4] = Flp-In-T-REx-293; read-out: Top

SMILES	EC50 ([1]; read-out: EC50) [nM]	Emax [2, 4] [%]	also measured
COc1cc(CNC(=O)CCCCCCC(C)C)ccc1O [compound 2, Dihydrocapsaicin]	50	–	–
COc1cc(CNC(=O)CCCCCCCC(C)C)ccc1O [compound 4, Homodihydrocapsaicin I]	320	–	–
COc1cc(CNC(=O)CC/C=C/C(C)C)ccc1O [compound 10, Nornorcapsaicin]	810	77.8	–
COc1cc(CNC(=O)CCCCCC(C)C)ccc1O [compound 11, Nordihydrocapsaicin]	–	–	EC50 [2]: 53.4 nM
CCCCCCCC(=O)NCc1ccc(O)c(OC)c1 [compound 13, N-vanillyl octanamide]	150	93.7	–
CCCCCCCCCC(=O)NCc1ccc(O)c(OC)c1 [compound 14, N-Vanillyldecanamide]	200	114	–
COc1cc(CNC(=O)CC/C=C/C=C/C(C)C)ccc1O [compound 16, N-vanillyl-4E,6E-dien-8-methylnonanamide]	140	94.3	–
CCCCCCCCC(=O)NCc1ccc(O)c(OC)c1 [compound 17, Nonivamide]	–	–	Emax ([2]; Flp-In-T-REx-293, read-out: Top): 105%
CCCCCCCC/C=C\CCCCCCCC(=O)NCc1ccc(O)c(OC)c1 [compound 20, Olvanil]	120	40.4	–
COc1cc(CNC(=O)CCCC/C=C/C(C)CO)ccc1O (stereo not drawn) [compound 22, ω-Hydroxycapsaicin]	5560	90	–
COc1cc(CNC(=O)CCCC/C=C/C(C)C)cc(-c2cc(CNC(=O)CCCCCCC(C)C)cc(OC)c2O)c1O [compound 23, 6″,7″-Dihydro-5′,5‴-dicapsaicin]	–	90.7	EC50 ([1]; agonist, HHBS pH ~7.4, ~30 °C, unreliable (sample 79.94% pure, trace monomers may inflate the potency), read-out: EC50): 10270 nM; EC50 [2]: 10300 nM
COc1cc(CNC(=O)CCCC/C=C/C(C)C)ccc1O[C@@H]1O[C@H](CO)[C@@H](O)[C@H](O)[C@H]1O [compound 24, Capsaicin β-D-glucopyranoside]	4690	102	–
CCCCCCC(=O)NCc1ccc(O)c(OC)c1 [compound 26, N-Heptanoate vanillylamide]	1810	114	–
COc1cc(CNC(=O)CCCCC(C)C)ccc1O [compound 27, Nornordihydrocapsaicin]	1040	94.8	–
COc1cc(CNC(=O)CC(C)C)ccc1O [compound 30, N-isovalerylvanillylamin]	2840	80	–
COc1cc(CNC(=O)CCCCCC(=O)C(C)C)ccc1O [compound 31, N-(4-Hydroxy-3-methoxybenzyl)-8-methyl-7-oxononanamide]	560	84.2	EC50 [2]: 602 nM
COc1cc(CNC(=O)CCCCC2OC2C(C)C)ccc1O (stereo not drawn) [compound 32, Epicapsaicin]	600	110	EC50 [2]: 1110 nM
COc1cc(CNC(=O)CCCCCCCC(C)O)ccc1O (stereo not drawn) [compound 33, N-vanillyl-9-hydroxydecanamide]	6330	96.5	–
COc1cc(CNC(=O)CCCCCC(O)C(C)C)ccc1O (stereo not drawn) [compound 34, N-vanillyl-7-hydroxy-8-methylnonamide]	1460	90.6	–
COc1cc(CNC(=O)C=CC=CC(C)C)ccc1O [compound 35, N-vanillyl 6-Methyl-2,4-heptadienamide]	1200	77.8	–
COc1cc(CNC(=O)CCCC/C=C/C(C)C)cc(-c2cc(CNC(=O)CCCC/C=C/C(C)C)cc(OC)c2O)c1O [compound 38, 5,5’-dicapsaicin]	–	83.3	EC50 ([1]; agonist, HHBS pH ~7.4, ~30 °C, unreliable (trace monomers may inflate the potency)): 4.46E-06 (95% CI 3.848e-006 to 5.265e-006) M
COc1cc(COC(=O)CCCC/C=C/C(C)C)ccc1O [compound 39, capsiate]	–	–	EC50 [3]: 491000 nM
